The source of these data is PubChem BioAssay AID248 (DTP/NCI, 2004).

Inconclusive results and toxic doses are left out.

This assay deals with L1210 leukemia ip in BDF1 mice, survival T/C. The assay can be described thus: NCI In Vivo Anticancer Drug Screen. Data for tumor model L1210 Leukemia (intraperitoneal) in B6D2F1 (BDF1) mice. The conditions noted are these: endpoint: mean survival time, higher = longer survival. The gist of the method: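 Ratio derived from survival: compound-dosed mice over vehicle-dosed mice, all bearing a transplantable tumor.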

Where [1] appears, read: dose: 50.0 mg/kg/injection, schedule: Q01DX009 (ip), vehicle: Klucel (hydroxypropylcellulose) (HPC).
The mark [2] stands for this setting: dose: 400.0 mg/kg/injection, schedule: Q01DX009 (ip), vehicle: Klucel (hydroxypropylcellulose) (HPC).
Setting [3] is: dose: 100.0 mg/kg/injection, schedule: Q04DX003 (ip), vehicle: saline with Tween-80.
Setting [4] is: dose: 200.0 mg/kg/injection, schedule: Q04DX003 (ip), vehicle: saline with Tween-80.
Setting [5] is: dose: 100.0 mg/kg/injection, schedule: Q04DX002 (ip), vehicle: Klucel (hydroxypropylcellulose) (HPC).
The mark [6] stands for this setting: dose: 200.0 mg/kg/injection, schedule: Q04DX002 (ip), vehicle: Klucel (hydroxypropylcellulose) (HPC).
[7] abbreviates: dose: 400.0 mg/kg/injection, schedule: Q04DX002 (ip), vehicle: Klucel (hydroxypropylcellulose) (HPC).
The mark [8] stands for this setting: dose: 100.0 mg/kg/injection, schedule: Q01DX009 (ip), vehicle: Klucel (hydroxypropylcellulose) (HPC).
Where [9] appears, read: dose: 200.0 mg/kg/injection, schedule: Q01DX009 (ip), vehicle: Klucel (hydroxypropylcellulose) (HPC).
Where [10] appears, read: dose: 100.0 mg/kg/injection, schedule: Q01DX009 (ip), vehicle: saline.
[11] abbreviates: dose: 100.0 mg/kg/injection, schedule: Q04DX003 (ip), vehicle: saline.
The mark [12] stands for this setting: dose: 200.0 mg/kg/injection, schedule: Q01DX009 (ip), vehicle: saline.
Setting [13] is: dose: 200.0 mg/kg/injection, schedule: Q04DX003 (ip), vehicle: saline.
[14] abbreviates: dose: 400.0 mg/kg/injection, schedule: Q01DX009 (ip), vehicle: saline.
The mark [15] stands for this setting: dose: 400.0 mg/kg/injection, schedule: Q04DX003 (ip), vehicle: saline with Tween-80.

Consider `O=C[N]([Hg][Cl])c1ccccc1`, for which the T/C (dose: 0.39 mg/kg/injection, schedule: Q01DX009 (ip), vehicle: saline with Tween-80) was 102 % of control; the T/C (dose: 0.78 mg/kg/injection, schedule: Q01DX009 (ip), vehicle: saline with Tween-80) was 102 % of control; the T/C (dose: 1.56 mg/kg/injection, schedule: Q01DX009 (ip), vehicle: saline with Tween-80) was 87 % of control; the T/C (dose: 1.56 mg/kg/injection, schedule: Q01DX009 (ip), vehicle: saline) was 94 % of control.
As for `Cc1ccc(C)c(NC(=O)c2ccc(Cl)c(Cl)c2)c1`, the T/C is 92 % of control (dose: 1.5 mg/kg/injection, schedule: Q01DX009 (ip), vehicle: Klucel (hydroxypropylcellulose) (HPC)); 99 % of control (dose: 3.0 mg/kg/injection, schedule: Q01DX009 (ip), vehicle: Klucel (hydroxypropylcellulose) (HPC)); 97 % of control (dose: 6.0 mg/kg/injection, schedule: Q01DX009 (ip), vehicle: Klucel (hydroxypropylcellulose) (HPC)); 88 % of control (dose: 6.25 mg/kg/injection, schedule: Q01DX009 (ip), vehicle: Klucel (hydroxypropylcellulose) (HPC)); 86 % of control under setting [1]; 93 % of control (dose: 100.0 mg/kg/injection, schedule: Q04DX003 (ip), vehicle: Klucel (hydroxypropylcellulose) (HPC)). Also, the T/C reads like this: (dose: 200.0 mg/kg/injection, schedule: Q04DX003 (ip), vehicle: Klucel (hydroxypropylcellulose) (HPC)) 91 % of control; under setting [2], 86 % of control; (dose: 400.0 mg/kg/injection, schedule: Q04DX003 (ip), vehicle: Klucel (hydroxypropylcellulose) (HPC)) 90 % of control.
Regarding `CC1=NCCc2c1cc1c([nH]c3ccccc31)c2C`, the T/C is 106 % of control (dose: 14.0 mg/kg/injection, schedule: Q01DX Z (ip), vehicle: carboxymethylcellulose (CMC)); 107 % of control (dose: 28.0 mg/kg/injection, schedule: Q01DX Z (ip), vehicle: carboxymethylcellulose (CMC)); 121 % of control (dose: 44.0 mg/kg/injection, schedule: Q01DX009 (ip), vehicle: other); 115 % of control (dose: 44.0 mg/kg/injection, schedule: Q01DX009 (ip), vehicle: saline with Tween-80); 101 % of control (dose: 50.0 mg/kg/injection, schedule: Q01DX009 (ip), vehicle: saline with Tween-80); 113 % of control (dose: 56.0 mg/kg/injection, schedule: Q01DX Z (ip), vehicle: carboxymethylcellulose (CMC)). Also, the T/C was 151 % of control (dose: 100.0 mg/kg/injection, schedule: Q01DX009 (ip), vehicle: other); 151 % of control (dose: 100.0 mg/kg/injection, schedule: Q01DX009 (ip), vehicle: saline with Tween-80); 110 % of control (dose: 100.0 mg/kg/injection, schedule: Q04DX003 (ip), vehicle: acetone); 110 % of control under setting [3]; 123 % of control (dose: 112.0 mg/kg/injection, schedule: Q01DX Z (ip), vehicle: carboxymethylcellulose (CMC)); 178 % of control (dose: 150.0 mg/kg/injection, schedule: Q01DX009 (ip), vehicle: saline with Tween-80). The T/C is, setting by setting: (dose: 177.0 mg/kg/injection, schedule: Q04DX003 (ip), vehicle: saline with Tween-80) 122 % of control; (dose: 200.0 mg/kg/injection, schedule: Q01DX009 (ip), vehicle: saline with Tween-80) 101 % of control; (dose: 200.0 mg/kg/injection, schedule: Q04DX003 (ip), vehicle: acetone) 102 % of control; under setting [4], 115 % of control; (dose: 210.0 mg/kg/injection, schedule: Q01DX009 (ip), vehicle: other) 98 % of control; (dose: 266.0 mg/kg/injection, schedule: Q04DX003 (ip), vehicle: saline with Tween-80) 124 % of control.
As for `CN(C)/C=C(\C#N)C=O`, the T/C was 103 % of control (dose: 75.0 mg/kg/injection, schedule: Q01DX001 (ip), vehicle: saline) and 101 % of control (dose: 150.0 mg/kg/injection, schedule: Q01DX001 (ip), vehicle: saline).
`c1ccc2c(c1)oc1ccccc12`: the T/C is, setting by setting: (dose: 100.0 mg/kg/injection, schedule: Q01DX001 (ip), vehicle: saline) 102 % of control; (dose: 200.0 mg/kg/injection, schedule: Q01DX001 (ip), vehicle: saline) 102 % of control; (dose: 400.0 mg/kg/injection, schedule: Q01DX001 (ip), vehicle: saline) 96 % of control.
With `Cc1cc([N+](=O)[O-])ccc1NC(=O)OCc1ccccc1`, the T/C runs as follows: under setting [5], 99 % of control; under setting [6], 101 % of control; under setting [7], 89 % of control.
Turning to `CCOc1ccc(NC(=O)Oc2ccc(SC)c(C)c2)cc1`, the T/C by setting is: under setting [8], 91 % of control; under setting [9], 91 % of control; under setting [2], 96 % of control.
Regarding `CC(=O)CCCc1ccccc1`, the T/C runs as follows: under setting [10], 92 % of control; under setting [11], 100 % of control; under setting [12], 98 % of control; under setting [13], 100 % of control; under setting [14], 104 % of control.
On to `O=c1cc(-c2ccccc2)c2ccc(O)cc2o1`, for which the T/C under setting [3] is 95 % of control, the T/C under setting [4] is 101 % of control and the T/C under setting [15] was 93 % of control.
`O=C(OCCc1ccccc1)Oc1ccccc1`: the T/C reads like this: under setting [10], 115 % of control; under setting [12], 110 % of control; under setting [14], 103 % of control.
With `NC(CCSCc1ccccc1)C(=O)O` (stereo not given), the T/C reads like this: (dose: 12.5 mg/kg/injection, schedule: Q04DX002 (ip), vehicle: Klucel (hydroxypropylcellulose) (HPC)) 107 % of control; (dose: 25.0 mg/kg/injection, schedule: Q04DX002 (ip), vehicle: Klucel (hydroxypropylcellulose) (HPC)) 97 % of control; (dose: 50.0 mg/kg/injection, schedule: Q04DX002 (ip), vehicle: Klucel (hydroxypropylcellulose) (HPC)) 97 % of control; under setting [5], 113 % of control; under setting [6], 98 % of control; under setting [7], 98 % of control.
In the case of `COC1OC(C)CC(O)C1O` (stereo not given), the T/C is, setting by setting: under setting [11], 97 % of control; under setting [13], 103 % of control; (dose: 400.0 mg/kg/injection, schedule: Q04DX003 (ip), vehicle: saline) 109 % of control.
In the case of `ClCCCC#Cc1ccccc1`, the T/C is 101 % of control under setting [1]; 90 % of control (dose: 100.0 mg/kg/injection, schedule: Q01DX001 (ip), vehicle: Klucel (hydroxypropylcellulose) (HPC)); 101 % of control under setting [8]; 98 % of control (dose: 200.0 mg/kg/injection, schedule: Q01DX001 (ip), vehicle: Klucel (hydroxypropylcellulose) (HPC)); 110 % of control under setting [9].
For the molecule `O=C(Nc1ccc([N+](=O)[O-])cc1Cl)Oc1ccc(Cl)cc1Cc1ccccc1`, the T/C under setting [3] was 88 % of control, the T/C under setting [4] was 93 % of control and the T/C under setting [15] was 102 % of control.
